± gives the uncertainty stated by the source.
Assay: xn = mol fraction of the nth substance listed

CCCCCCCCCCCCN + C1CCCCC1
303.15 K, 101 kPa
Conditions	viscosity [mPa·s]
x2 = 0.2093	2.31 ± 0.025
x2 = 0.3927	1.948 ± 0.021
x2 = 0.5029	1.709 ± 0.019
x2 = 0.6032	1.492 ± 0.016
x2 = 0.8037	1.116 ± 0.012

Cc1cccc(O)c1 + C1CCCCC1
308.15 K, 101 kPa
Conditions	viscosity [mPa·s]
x1 = 0.0832	0.8736 ± 0.0072
x1 = 0.289	1.288 ± 0.01
x1 = 0.3627	1.541 ± 0.012
x1 = 0.4467	1.863 ± 0.015
x1 = 0.5201	2.175 ± 0.017
x1 = 0.5859	2.547 ± 0.021
x1 = 0.7213	3.745 ± 0.03
x1 = 0.8473	5.244 ± 0.043
x1 = 0.9032	6.428 ± 0.052

ClC1CCCCC1 + C1CCCCC1
viscosity [mPa·s], 101.3 kPa
Conditions	x2 = 0.095	x2 = 0.2004	x2 = 0.2999	x2 = 0.3989	x2 = 0.4989	x2 = 0.5993	x2 = 0.6986	x2 = 0.8004	x2 = 0.9006
298.15 K	1.485 ± 0.014	1.394 ± 0.013	1.315 ± 0.012	1.241 ± 0.011	1.172 ± 0.01	1.106 ± 0.0096	1.046 ± 0.009	0.9893 ± 0.0085	0.9379 ± 0.008
313.15 K	1.153 ± 0.011	1.086 ± 0.01	1.025 ± 0.0097	0.9696 ± 0.0091	0.9164 ± 0.0085	0.8667 ± 0.008	0.821 ± 0.0075	0.7771 ± 0.0071	0.7392 ± 0.0067

ClC1CCCCC1 + C1CCOC1
viscosity [mPa·s], 101.3 kPa
Conditions	x2 = 0.1036	x2 = 0.2057	x2 = 0.3029	x2 = 0.4018	x2 = 0.5079	x2 = 0.6003	x2 = 0.7026	x2 = 0.8045	x2 = 0.9032
298.15 K	1.38 ± 0.009	1.22 ± 0.008	1.087 ± 0.0072	0.9655 ± 0.0065	0.8521 ± 0.0059	0.7631 ± 0.0054	0.6748 ± 0.0048	0.5979 ± 0.0044	0.5278 ± 0.004
313.15 K	1.085 ± 0.0072	0.9721 ± 0.0066	0.8761 ± 0.006	0.7866 ± 0.0055	0.7016 ± 0.005	0.6344 ± 0.0046	0.5652 ± 0.0042	0.5038 ± 0.0039	0.4475 ± 0.0035

ClC1CCCCC1 + C1CCOCC1
viscosity [mPa·s], 101.3 kPa
Conditions	x2 = 0.1031	x2 = 0.2	x2 = 0.3037	x2 = 0.4038	x2 = 0.4996	x2 = 0.6036	x2 = 0.6992	x2 = 0.8038	x2 = 0.9034
298.15 K	1.459 ± 0.0096	1.364 ± 0.0091	1.27 ± 0.0087	1.188 ± 0.0084	1.114 ± 0.008	1.04 ± 0.0077	0.9774 ± 0.0074	0.9135 ± 0.0071	0.8561 ± 0.0068
313.15 K	1.141 ± 0.0077	1.073 ± 0.0074	1.002 ± 0.0071	0.9418 ± 0.0068	0.8879 ± 0.0066	0.8332 ± 0.0063	0.7853 ± 0.0061	0.7364 ± 0.0059	0.6928 ± 0.0057

Cc1cccc(O)c1 + C1COCCO1
308.15 K, 101 kPa
Conditions	viscosity [mPa·s]
x2 = 0.1	6.346 ± 0.076
x2 = 0.2	5.28 ± 0.064
x2 = 0.3	4.391 ± 0.054
x2 = 0.4	3.412 ± 0.042
x2 = 0.5	2.693 ± 0.033
x2 = 0.6	2.138 ± 0.027
x2 = 0.7	1.711 ± 0.021
x2 = 0.8	1.407 ± 0.018
x2 = 0.9	1.235 ± 0.016

CC(=O)c1ccc(C)cc1 + C=CC#N
308.15 K, 101 kPa
Conditions	viscosity [mPa·s]
x1 = 0.053	0.365 ± 0.004
x1 = 0.1107	0.4026 ± 0.0043
x1 = 0.1749	0.4516 ± 0.0047
x1 = 0.2487	0.511 ± 0.0052
x1 = 0.3327	0.5909 ± 0.0059
x1 = 0.4237	0.684 ± 0.0067
x1 = 0.536	0.8136 ± 0.0078
x1 = 0.6679	0.9939 ± 0.0094
x1 = 0.8181	1.23 ± 0.011

ClC1CCCCC1 + CC1CCCO1
viscosity [mPa·s], 101.3 kPa
Conditions	x2 = 0.0984	x2 = 0.1994	x2 = 0.2986	x2 = 0.4009	x2 = 0.4991	x2 = 0.5995	x2 = 0.701	x2 = 0.802	x2 = 0.8995
298.15 K	1.367 ± 0.009	1.195 ± 0.0081	1.055 ± 0.0074	0.9325 ± 0.0067	0.8311 ± 0.0062	0.742 ± 0.0057	0.6638 ± 0.0053	0.5963 ± 0.0049	0.5378 ± 0.0046
313.15 K	1.075 ± 0.0073	0.9535 ± 0.0067	0.8519 ± 0.0061	0.7611 ± 0.0057	0.6848 ± 0.0053	0.6167 ± 0.0049	0.5561 ± 0.0046	0.5018 ± 0.0043	0.4546 ± 0.004

C=Cn1cc[n+](CC(N)=O)c1.O=S(=O)([N-]S(=O)(=O)C(F)(F)F)C(F)(F)F + CC#N
viscosity [mPa·s], 100 kPa
Conditions	298.15 K	303.15 K	308.15 K	313.15 K	318.15 K	323.15 K
x1 = 0.1	–	9.97 ± 2	9.16 ± 1.9	8.17 ± 1.6	7.74 ± 1.6	7.02 ± 1.4
x1 = 0.201	75.29 ± 15	68.64 ± 14	59.58 ± 12	50.56 ± 10	–	–
x1 = 0.3026	–	246.5 ± 51	–	–	–	–
x1 = 0.4011	805.9 ± 180	683.3 ± 150	549.2 ± 120	–	–	–

CC(=O)c1ccc(C)cc1 + CC#N
308.15 K, 101 kPa
Conditions	viscosity [mPa·s]
x1 = 0.0872	0.3857 ± 0.015
x1 = 0.1449	0.4411 ± 0.016
x1 = 0.2088	0.5094 ± 0.018
x1 = 0.2823	0.5871 ± 0.021
x1 = 0.3756	0.6989 ± 0.024
x1 = 0.4771	0.826 ± 0.027
x1 = 0.6125	1.001 ± 0.032
x1 = 0.7811	1.235 ± 0.039
x1 = 0.9146	1.454 ± 0.045

COc1ccc2cc([C@H](C)C(=O)O)ccc2c1 + CC#N
101 kPa
Conditions	viscosity [mPa·s]
297.93 K, x1 = 0.000702	0.3571 ± 0.0076
297.96 K, x1 = 0.000233	0.3546 ± 0.0075
298.01 K, x1 = 0.001151	0.3583 ± 0.0076
298.04 K, x1 = 0.001587	0.3603 ± 0.0077
298.07 K, x1 = 0.002732	0.364 ± 0.0077
301.61 K, x1 = 0.001151	0.3461 ± 0.0074
301.69 K, x1 = 0.000233	0.3425 ± 0.0073
301.69 K, x1 = 0.001587	0.3476 ± 0.0074
301.7 K, x1 = 0.000702	0.344 ± 0.0073
301.75 K, x1 = 0.002732	0.351 ± 0.0075
303.56 K, x1 = 0.001151	0.3398 ± 0.0072
303.58 K, x1 = 0.002732	0.3453 ± 0.0074
303.65 K, x1 = 0.000233	0.3359 ± 0.0072
303.66 K, x1 = 0.001587	0.342 ± 0.0073
303.69 K, x1 = 0.000702	0.3371 ± 0.0072
305.66 K, x1 = 0.000233	0.3303 ± 0.007
305.66 K, x1 = 0.001151	0.3329 ± 0.0071
305.7 K, x1 = 0.002732	0.3376 ± 0.0072
305.71 K, x1 = 0.000702	0.331 ± 0.0071
305.71 K, x1 = 0.001587	0.3347 ± 0.0071
308.62 K, x1 = 0.001151	0.324 ± 0.0069
308.64 K, x1 = 0.001587	0.3252 ± 0.0069
308.71 K, x1 = 0.000233	0.3206 ± 0.0068
308.75 K, x1 = 0.002732	0.3279 ± 0.007
308.76 K, x1 = 0.000702	0.322 ± 0.0069
311.62 K, x1 = 0.001151	0.3149 ± 0.0067
311.63 K, x1 = 0.001587	0.3163 ± 0.0068
311.68 K, x1 = 0.002732	0.3191 ± 0.0068
311.69 K, x1 = 0.000233	0.3119 ± 0.0067
311.72 K, x1 = 0.000702	0.3132 ± 0.0067

C[N+](=O)[O-] + CC#N
101 kPa
Conditions	viscosity [mPa·s]
298.15 K, x1 = 0.107	0.3665 ± 0.0092
298.15 K, x1 = 0.206	0.389 ± 0.0098
298.15 K, x1 = 0.301	0.4121 ± 0.01
298.15 K, x1 = 0.398	0.4366 ± 0.011
298.15 K, x1 = 0.502	0.4646 ± 0.012
298.15 K, x1 = 0.598	0.4917 ± 0.012
298.15 K, x1 = 0.7	0.5223 ± 0.013
298.15 K, x1 = 0.792	0.5508 ± 0.014
298.15 K, x1 = 0.895	0.5844 ± 0.015
298.15 K, x2 = 0.1433	0.569 ± 0.006
298.15 K, x2 = 0.3891	0.495 ± 0.006
298.15 K, x2 = 0.39	0.496 ± 0.005
298.15 K, x2 = 0.403	0.492 ± 0.005
298.15 K, x2 = 0.408	0.49 ± 0.005
298.15 K, x2 = 0.598	0.439 ± 0.005
298.15 K, x2 = 0.698	0.413 ± 0.005
298.15 K, x2 = 0.729	0.405 ± 0.004
298.15 K, x2 = 0.739	0.403 ± 0.004
298.15 K, x2 = 0.776	0.395 ± 0.005
298.15 K, x2 = 0.9346	0.359 ± 0.005
308.15 K, x2 = 0.1433	0.52 ± 0.006
308.15 K, x2 = 0.3891	0.454 ± 0.005
308.15 K, x2 = 0.598	0.404 ± 0.005
308.15 K, x2 = 0.776	0.364 ± 0.005
308.15 K, x2 = 0.9346	0.333 ± 0.005
313.15 K, x1 = 0.107	0.3169 ± 0.0079
313.15 K, x1 = 0.206	0.3355 ± 0.0084
313.15 K, x1 = 0.301	0.3546 ± 0.0089
313.15 K, x1 = 0.398	0.3751 ± 0.0094
313.15 K, x1 = 0.502	0.3985 ± 0.01
313.15 K, x1 = 0.598	0.4211 ± 0.011
313.15 K, x1 = 0.7	0.4465 ± 0.011
313.15 K, x1 = 0.792	0.4697 ± 0.012
313.15 K, x1 = 0.895	0.4974 ± 0.012
318.15 K, x2 = 0.1433	0.469 ± 0.005
318.15 K, x2 = 0.3891	0.411 ± 0.005
318.15 K, x2 = 0.598	0.367 ± 0.005
318.15 K, x2 = 0.776	0.333 ± 0.005
318.15 K, x2 = 0.9346	0.305 ± 0.004
